Laboratory results from patent publication US20150125509A1, “TREATMENT OF FISH POPULATIONS WITH LUFENURON” (priority 2012, published 2015).

Tests used:
L. salmonis = assay: Example 1: in-feed treatment in sea water, natural sea louse infestation, L. salmonis counts; type: in vivo, Lepeophtheirus salmonis on Atlantic Salmon, S. salar; settings: for L. salmonis: all stages, Treated, average group counts / L. salmonis: pre- & adults, Efficacy / L. salmonis: pre- & adults, Treated, average group counts: sea water
Experimental: Three groups of 150 salmon (Atlantic Salmon, S. salar) of average weight 238 g were treated with medicated pellets containing lufenuron at a dose of respectively 3, 5 and 10 mg/kg/day during 7 consecutive days. The medicated pellets were prepared by dry coating commercially available fish feed pellets with a lufenuron-containing pre-mix to reach a content of 0.03, 0.05 and 0.1% (w/w) lufenuron in the fish feed and administered at a 1% feeding rate. The treatment was carried out in sea water.
Each group was maintained in a separate cage. A fourth cage containing 150 salmon of average weight 238 g was added to the study as a non-treated control group.
After treatment, the fish were exposed to natural sea louse infestation for a period of 9 months. During the study the water temperature varied between 4 and 12° C. Fish weight and sea louse numbers were assessed 1 day post-treatment, 1 week post-treatment and afterwards on a monthly basis until month 9. Counts were conducted on 10 fish at each sampling occasion. The numbers of chalimus, pre-adults and adult male, mobile and mature female L. salmonis were recorded for each fish. No distinction was made between chalimus stages I-IV or between pre-adult and adult male stages.
Efficacy was calculated using the formula:
% Efficacy=100−(100×mean of treatment group/mean of control).

sea louse = settings: injectable, WO99/063824; cited from earlier work
[1] = 3 mg/kg/day 7 days in-feed, 1 month post-treatment
[2] = 3 mg/kg/day 7 days in-feed, 1 week post-treatment
[3] = 3 mg/kg/day 7 days in-feed, 2 month post-treatment
[4] = 3 mg/kg/day 7 days in-feed, 3 month post-treatment
[5] = 3 mg/kg/day 7 days in-feed, 4 month post-treatment
[6] = 3 mg/kg/day 7 days in-feed, 5 month post-treatment
[7] = 3 mg/kg/day 7 days in-feed, 6 month post-treatment
[8] = 3 mg/kg/day 7 days in-feed, 1 day post-treatment
[9] = 5 mg/kg/day 7 days in-feed, 1 month post-treatment
[10] = 5 mg/kg/day 7 days in-feed, 1 week post-treatment
[11] = 5 mg/kg/day 7 days in-feed, 2 month post-treatment
[12] = 5 mg/kg/day 7 days in-feed, 3 month post-treatment
[13] = 5 mg/kg/day 7 days in-feed, 4 month post-treatment
[14] = 5 mg/kg/day 7 days in-feed, 5 month post-treatment
[15] = 5 mg/kg/day 7 days in-feed, 6 month post-treatment
[16] = 5 mg/kg/day 7 days in-feed, 7 month post-treatment
[17] = 5 mg/kg/day 7 days in-feed, 8 month post-treatment
[18] = 5 mg/kg/day 7 days in-feed, 9 month post-treatment
[19] = 5 mg/kg/day 7 days in-feed, 1 day post-treatment
[20] = 10 mg/kg/day 7 days in-feed, 1 month post-treatment
[21] = 10 mg/kg/day 7 days in-feed, 1 week post-treatment
[22] = 10 mg/kg/day 7 days in-feed, 2 month post-treatment
[23] = 10 mg/kg/day 7 days in-feed, 3 month post-treatment
[24] = 10 mg/kg/day 7 days in-feed, 4 month post-treatment
[25] = 10 mg/kg/day 7 days in-feed, 5 month post-treatment
[26] = 10 mg/kg/day 7 days in-feed, 6 month post-treatment
[27] = 10 mg/kg/day 7 days in-feed, 7 month post-treatment
[28] = 10 mg/kg/day 7 days in-feed, 8 month post-treatment
[29] = 10 mg/kg/day 7 days in-feed, 9 month post-treatment
[30] = 10 mg/kg/day 7 days in-feed, 1 day post-treatment

O=C(NC(=O)c1c(F)cccc1F)Nc1cc(Cl)c(OC(F)(F)C(F)C(F)(F)F)cc1Cl (centres unmarked) [lufenuron, N-{[2,5-Dichlor-4-(1,1,2,3,3,3-hexafluorpropoxy)phenyl]carbamoyl}-2,6-difluorbenzamid]
L. salmonis: all stages, Treated, average group counts (L. salmonis; [1]): 0.00
L. salmonis: pre- & adults, Efficacy (L. salmonis; [1]): 100%
L. salmonis: pre- & adults, Treated, average group counts (L. salmonis; [1]): 0.00
L. salmonis: all stages, Treated, average group counts (L. salmonis; [2]): 0.10
L. salmonis: pre- & adults, Treated, average group counts (L. salmonis; [2]): 0.10
L. salmonis: all stages, Treated, average group counts (L. salmonis; [3]): 0.30
L. salmonis: pre- & adults, Efficacy (L. salmonis; [3]): 95%
L. salmonis: pre- & adults, Treated, average group counts (L. salmonis; [3]): 0.10
L. salmonis: all stages, Treated, average group counts (L. salmonis; [4]): 0.20
L. salmonis: pre- & adults, Efficacy (L. salmonis; [4]): 95%
L. salmonis: pre- & adults, Treated, average group counts (L. salmonis; [4]): 0.10
L. salmonis: all stages, Treated, average group counts (L. salmonis; [5]): 0.00
L. salmonis: pre- & adults, Efficacy (L. salmonis; [5]): 100%
L. salmonis: pre- & adults, Treated, average group counts (L. salmonis; [5]): 0.00
L. salmonis: all stages, Treated, average group counts (L. salmonis; [6]): 0.10
L. salmonis: pre- & adults, Efficacy (L. salmonis; [6]): 97%
L. salmonis: pre- & adults, Treated, average group counts (L. salmonis; [6]): 0.10
L. salmonis: all stages, Treated, average group counts (L. salmonis; [7]): 1.30
L. salmonis: pre- & adults, Efficacy (L. salmonis; [7]): 50%
L. salmonis: pre- & adults, Treated, average group counts (L. salmonis; [7]): 1.30
L. salmonis: all stages, Treated, average group counts (L. salmonis; [8]): 0.10
L. salmonis: pre- & adults, Treated, average group counts (L. salmonis; [8]): 0.10
L. salmonis: all stages, Treated, average group counts (L. salmonis; [9]): 1.90
L. salmonis: pre- & adults, Efficacy (L. salmonis; [9]): 90%
L. salmonis: pre- & adults, Treated, average group counts (L. salmonis; [9]): 0.10
L. salmonis: all stages, Treated, average group counts (L. salmonis; [10]): 0.00
L. salmonis: pre- & adults, Treated, average group counts (L. salmonis; [10]): 0.00
L. salmonis: all stages, Treated, average group counts (L. salmonis; [11]): 0.00
L. salmonis: pre- & adults, Efficacy (L. salmonis; [11]): 100%
L. salmonis: pre- & adults, Treated, average group counts (L. salmonis; [11]): 0.00
L. salmonis: all stages, Treated, average group counts (L. salmonis; [12]): 0.20
L. salmonis: pre- & adults, Efficacy (L. salmonis; [12]): 91%
L. salmonis: pre- & adults, Treated, average group counts (L. salmonis; [12]): 0.20
L. salmonis: all stages, Treated, average group counts (L. salmonis; [13]): 0.10
L. salmonis: pre- & adults, Efficacy (L. salmonis; [13]): 96%
L. salmonis: pre- & adults, Treated, average group counts (L. salmonis; [13]): 0.10
L. salmonis: all stages, Treated, average group counts (L. salmonis; [14]): 0.10
L. salmonis: pre- & adults, Efficacy (L. salmonis; [14]): 97%
L. salmonis: pre- & adults, Treated, average group counts (L. salmonis; [14]): 0.10
L. salmonis: all stages, Treated, average group counts (L. salmonis; [15]): 0.60
L. salmonis: pre- & adults, Efficacy (L. salmonis; [15]): 77%
L. salmonis: pre- & adults, Treated, average group counts (L. salmonis; [15]): 0.60
L. salmonis: all stages, Treated, average group counts (L. salmonis; [16]): 1.80
L. salmonis: pre- & adults, Efficacy (L. salmonis; [16]): 88%
L. salmonis: pre- & adults, Treated, average group counts (L. salmonis; [16]): 0.60
L. salmonis: all stages, Treated, average group counts (L. salmonis; [17]): 0.50
L. salmonis: pre- & adults, Efficacy (L. salmonis; [17]): 90%
L. salmonis: pre- & adults, Treated, average group counts (L. salmonis; [17]): 0.50
L. salmonis: all stages, Treated, average group counts (L. salmonis; [18]): 0.40
L. salmonis: pre- & adults, Efficacy (L. salmonis; [18]): 94%
L. salmonis: pre- & adults, Treated, average group counts (L. salmonis; [18]): 0.40
L. salmonis: all stages, Treated, average group counts (L. salmonis; [19]): 0.00
L. salmonis: pre- & adults, Treated, average group counts (L. salmonis; [19]): 0.00
L. salmonis: all stages, Treated, average group counts (L. salmonis; [20]): 3.10
L. salmonis: pre- & adults, Efficacy (L. salmonis; [20]): 100%
L. salmonis: pre- & adults, Treated, average group counts (L. salmonis; [20]): 0.00
L. salmonis: all stages, Treated, average group counts (L. salmonis; [21]): 0.20
L. salmonis: pre- & adults, Treated, average group counts (L. salmonis; [21]): 0.00
L. salmonis: all stages, Treated, average group counts (L. salmonis; [22]): 0.00
L. salmonis: pre- & adults, Efficacy (L. salmonis; [22]): 100%
L. salmonis: pre- & adults, Treated, average group counts (L. salmonis; [22]): 0.00
L. salmonis: all stages, Treated, average group counts (L. salmonis; [23]): 0.10
L. salmonis: pre- & adults, Efficacy (L. salmonis; [23]): 95%
L. salmonis: pre- & adults, Treated, average group counts (L. salmonis; [23]): 0.10
L. salmonis: all stages, Treated, average group counts (L. salmonis; [24]): 0.00
L. salmonis: pre- & adults, Efficacy (L. salmonis; [24]): 100%
L. salmonis: pre- & adults, Treated, average group counts (L. salmonis; [24]): 0.00
L. salmonis: all stages, Treated, average group counts (L. salmonis; [25]): 0.00
L. salmonis: pre- & adults, Efficacy (L. salmonis; [25]): 100%
L. salmonis: pre- & adults, Treated, average group counts (L. salmonis; [25]): 0.00
L. salmonis: all stages, Treated, average group counts (L. salmonis; [26]): 0.30
L. salmonis: pre- & adults, Efficacy (L. salmonis; [26]): 96%
L. salmonis: pre- & adults, Treated, average group counts (L. salmonis; [26]): 0.10
L. salmonis: all stages, Treated, average group counts (L. salmonis; [27]): 0.80
L. salmonis: pre- & adults, Efficacy (L. salmonis; [27]): 98%
L. salmonis: pre- & adults, Treated, average group counts (L. salmonis; [27]): 0.10
L. salmonis: all stages, Treated, average group counts (L. salmonis; [28]): 0.10
L. salmonis: pre- & adults, Efficacy (L. salmonis; [28]): 98%
L. salmonis: pre- & adults, Treated, average group counts (L. salmonis; [28]): 0.10
L. salmonis: all stages, Treated, average group counts (L. salmonis; [29]): 0.00
L. salmonis: pre- & adults, Efficacy (L. salmonis; [29]): 100%
L. salmonis: pre- & adults, Treated, average group counts (L. salmonis; [29]): 0.00
L. salmonis: all stages, Treated, average group counts (L. salmonis; [30]): 0.00
L. salmonis: pre- & adults, Treated, average group counts (L. salmonis; [30]): 0.00
protected the fish against sea louse infestation until (time post-treatment) (L. salmonis; Example 1, 3 mg/kg treatment): 5 months
protected the fish against sea louse infestation until (time post treatment) (L. salmonis; Example 1, 5 mg/kg treatment): 9 months
efficacy against sea lice at all time points (L. salmonis; Example 1, 10 mg/kg group): more than 95%
protected the fish against sea louse infestation up to the end of the study (time post treatment) (L. salmonis; Example 1, 10 mg/kg treatment): 9 months
protection against sea louse infestation after injection (sea louse): 128 days
